Experimental data taken from patent US20250129054A1 (Terran Biosciences Inc., priority 2022, published 2025).

Experiment: Serial tail vein bleed PK study in SD rats: methylone measured in plasma after IV or oral methylone or oral methylone prodrugs
Format: in vivo, Sprague Dawley rats
Conditions: 10 mg/kg, rat
Protocol: A pharmacokinetic (PK) study was performed in three male Sprague-Dawley (SD) rats following intravenous (IV) and oral (PO) administration of methylone at 1 mg/kg (IV) and 10 mg/kg (PO) respectively, or test compounds (prodrugs of methylone) at 10 mg/kg (PO). Parent compound (methylone) was measured in plasma.
Samples were sent for method optimization and measurement of parent compound (methylone) via unique calibration lines and following acceptance QC's. Dose formulation concentrations were also measured, and PK parameters were determined (Cmax (ng/mL), Tmax (hr), Cl (ml/min/kg), Vdss (L/kg), t½(hr), AUC0-t (ng/mL*hr), AUC0-inf (ng/mL*hr), MIRT (hr), Bioavailability ([…]) where warranted) using WinNon Lin software. Data (including bioanalytical results and assay performance) were reported in a tabulated format.
Formulation for PO Administration: For PO dosing, the prodrug was formulated in 10% DMSO/20% PEG400/70% water to a concentration of 2 mg free metabolite material/mL. This provided a dose of 10 mg free metabolite/kg when the prodrug was administered PO in 5 mL/kg dosing volumes.
Formulation for IV administration: For IV dosing, rac-methylone was formulated as solution in saline to a concentration of 0.5 mg free metabolite material/mL. This provided a dose of 1 mg free metabolite/kg when administered IV in 2 mL/kg dosing volumes.
The pharmacokinetic properties of the synthesized methylone prodrugs after oral administration in a rat model were assessed. The concentration of methylone was measured in each rat at various sampling timepoints after IV or oral administration of rac-methylone or the synthesized methylone prodrugs to rats.
Dose formulations were made at equivalent concentrations of active compound (methylone) adjusted for molecular weight of the compounds. The synthesized methylone prodrugs or analogs were dosed at 10 mg/kg oral (PO) nominal dose. Nominal doses were used in PK parameter determinations. The parent compound (methylone) was dosed at 1 mg/kg intravenous (IV) and 10 mg/kg (PO).

[1] = 0.500 h after oral dosing of the prodrug, individual animals
[2] = 0.500 h after oral dosing of the prodrug, mean
[3] = 1.00 h after oral dosing of the prodrug, individual animals
[4] = 1.00 h after oral dosing of the prodrug, mean
[5] = 2.00 h after oral dosing of the prodrug, individual animals
[6] = 2.00 h after oral dosing of the prodrug, mean
[7] = 4.00 h after oral dosing of the prodrug, individual animals
[8] = 4.00 h after oral dosing of the prodrug, mean
[9] = 7.00 h after oral dosing of the prodrug, individual animals
[10] = 7.00 h after oral dosing of the prodrug, mean
[11] = 24.0 h after oral dosing of the prodrug, individual animals
[12] = 24.0 h after oral dosing of the prodrug, mean

Row | SMILES | Plasma Concentrations of metabolite methylone [1] | Plasma Concentrations of metabolite methylone [2] | Plasma Concentrations of metabolite methylone [3] | Plasma Concentrations of metabolite methylone [4] | Plasma Concentrations of metabolite methylone [5] | Plasma Concentrations of metabolite methylone [6] | Plasma Concentrations of metabolite methylone [7] | Plasma Concentrations of metabolite methylone [8] | Plasma Concentrations of metabolite methylone [9] | Plasma Concentrations of metabolite methylone [10] | Plasma Concentrations of metabolite methylone [11] | Plasma Concentrations of metabolite methylone [12]
1 | CC(C(=O)c1ccc2c(c1)OCO2)N(C)C(=O)OC(C)(C)C (stereo not drawn) [Compound 2A, tert-Butyl N-[2-(1,3-benzodioxol-5-yl)-1-methyl-2-oxo-ethyl]-N-methyl-carbamate] | BLQ (Below Lower Limit of Quantification (0.5 ng/mL)) | BLQ (Below Lower Limit of Quantification (0.5 ng/mL)) | BLQ (Below Lower Limit of Quantification (0.5 ng/mL)) | BLQ (Below Lower Limit of Quantification (0.5 ng/mL)) | BLQ (Below Lower Limit of Quantification (0.5 ng/mL)) | BLQ (Below Lower Limit of Quantification (0.5 ng/mL)) | BLQ (Below Lower Limit of Quantification (0.5 ng/mL)) | BLQ (Below Lower Limit of Quantification (0.5 ng/mL)) | BLQ (Below Lower Limit of Quantification (0.5 ng/mL)) | BLQ (Below Lower Limit of Quantification (0.5 ng/mL)) | BLQ (Below Lower Limit of Quantification (0.5 ng/mL)) | BLQ (Below Lower Limit of Quantification (0.5 ng/mL))
2 | CC(C(=O)c1ccc2c(c1)OCO2)N(C)C(=O)[C@H](CCCCNC(=O)OC(C)(C)C)NC(=O)OC(C)(C)C (stereo partly drawn) [Compound 3E, tert-Butyl N-[(5S)-6-[[2-(1,3-benzodioxol-5-yl)-1-methyl-2-oxo-ethyl]-methyl-amino]-5-(tert-butoxycarbonylamino)-6-oxo-hexyl]carbamate] | BLQ (Below Lower Limit of Quantification (0.5 ng/mL)) | BLQ (Below Lower Limit of Quantification (0.5 ng/mL)) | BLQ (Below Lower Limit of Quantification (0.5 ng/mL)) | BLQ (Below Lower Limit of Quantification (0.5 ng/mL)) | BLQ (Below Lower Limit of Quantification (0.5 ng/mL)) | BLQ (Below Lower Limit of Quantification (0.5 ng/mL)) | BLQ (Below Lower Limit of Quantification (0.5 ng/mL)) | BLQ (Below Lower Limit of Quantification (0.5 ng/mL)) | BLQ (Below Lower Limit of Quantification (0.5 ng/mL)) | BLQ (Below Lower Limit of Quantification (0.5 ng/mL)) | BLQ (Below Lower Limit of Quantification (0.5 ng/mL)) | BLQ (Below Lower Limit of Quantification (0.5 ng/mL))
3 | CCOC(=O)N(C)C(C)C(=O)c1ccc2c(c1)OCO2 (stereo not drawn) [Compound 1A, Ethyl N-[2-(1,3-benzodioxol-5-yl)-1-methyl-2-oxo-ethyl]-N-methyl-carbamate] | BLQ (Below Lower Limit of Quantification (0.5 ng/mL)) | BLQ (Below Lower Limit of Quantification (0.5 ng/mL)) | BLQ (Below Lower Limit of Quantification (0.5 ng/mL)) | BLQ (Below Lower Limit of Quantification (0.5 ng/mL)) | BLQ (Below Lower Limit of Quantification (0.5 ng/mL)) | BLQ (Below Lower Limit of Quantification (0.5 ng/mL)) | BLQ (Below Lower Limit of Quantification (0.5 ng/mL)) | BLQ (Below Lower Limit of Quantification (0.5 ng/mL)) | BLQ (Below Lower Limit of Quantification (0.5 ng/mL)) | BLQ (Below Lower Limit of Quantification (0.5 ng/mL)) | BLQ (Below Lower Limit of Quantification (0.5 ng/mL)) | BLQ (Below Lower Limit of Quantification (0.5 ng/mL))
4 | CC(C(=O)c1ccc2c(c1)OCO2)N(C)C(=O)C(F)(F)F (stereo not drawn) [Compound 2B, N-[2-(1,3-Benzodioxol-5-yl)-1-methyl-2-oxo-ethyl]-2,2,2-trifluoro-N-methyl-acetamide] | BLQ (Below Lower Limit of Quantification (0.5 ng/mL)) | BLQ (Below Lower Limit of Quantification (0.5 ng/mL)) | BLQ (Below Lower Limit of Quantification (0.5 ng/mL)) | BLQ (Below Lower Limit of Quantification (0.5 ng/mL)) | BLQ (Below Lower Limit of Quantification (0.5 ng/mL)) | BLQ (Below Lower Limit of Quantification (0.5 ng/mL)) | BLQ (Below Lower Limit of Quantification (0.5 ng/mL)) | BLQ (Below Lower Limit of Quantification (0.5 ng/mL)) | BLQ (Below Lower Limit of Quantification (0.5 ng/mL)) | BLQ (Below Lower Limit of Quantification (0.5 ng/mL)) | BLQ (Below Lower Limit of Quantification (0.5 ng/mL)) | BLQ (Below Lower Limit of Quantification (0.5 ng/mL))
5 | CC(C(=O)c1ccc2c(c1)OCO2)N(C)C(=O)N1CCC(N2CCCCC2)CC1 (stereo not drawn) [Compound 9A, N-[2-(1,3-Benzodioxol-5-yl)-1-methyl-2-oxo-ethyl]-N-methyl-4-(1-piperidyl)piperidine-1-carboxamide] | BLQ (Below Lower Limit of Quantification (0.5 ng/mL)) | BLQ (Below Lower Limit of Quantification (0.5 ng/mL)) | BLQ (Below Lower Limit of Quantification (0.5 ng/mL)) | BLQ (Below Lower Limit of Quantification (0.5 ng/mL)) | BLQ (Below Lower Limit of Quantification (0.5 ng/mL)) | BLQ (Below Lower Limit of Quantification (0.5 ng/mL)) | BLQ (Below Lower Limit of Quantification (0.5 ng/mL)) | BLQ (Below Lower Limit of Quantification (0.5 ng/mL)) | BLQ (Below Lower Limit of Quantification (0.5 ng/mL)) | BLQ (Below Lower Limit of Quantification (0.5 ng/mL)) | BLQ (Below Lower Limit of Quantification (0.5 ng/mL)) | BLQ (Below Lower Limit of Quantification (0.5 ng/mL))
6 | CC(C)COC(=O)N(C)C(C)C(=O)c1ccc2c(c1)OCO2 (stereo not drawn) [Compound 1D, iso-Butyl N-[2-(1,3-benzodioxol-5-yl)-1-methyl-2-oxo-ethyl]-N-methyl-carbamate] | BLQ (Below Lower Limit of Quantification (0.5 ng/mL)) | BLQ (Below Lower Limit of Quantification (0.5 ng/mL)) | BLQ (Below Lower Limit of Quantification (0.5 ng/mL)) | BLQ (Below Lower Limit of Quantification (0.5 ng/mL)) | BLQ (Below Lower Limit of Quantification (0.5 ng/mL)) | BLQ (Below Lower Limit of Quantification (0.5 ng/mL)) | BLQ (Below Lower Limit of Quantification (0.5 ng/mL)) | BLQ (Below Lower Limit of Quantification (0.5 ng/mL)) | BLQ (Below Lower Limit of Quantification (0.5 ng/mL)) | BLQ (Below Lower Limit of Quantification (0.5 ng/mL)) | BLQ (Below Lower Limit of Quantification (0.5 ng/mL)) | BLQ (Below Lower Limit of Quantification (0.5 ng/mL))
